Assay results as given in patent publication US5800820A, “Methods and compositions for treatment of angiogenic diseases” (Repligen Corporation, priority 1995, dated 1998).
Where “and” joins values, the source holds several entries; their conditions need not be identical. Equal entries are not always repeated.

How the values were obtained:
[1] = tested on: hind footpad (murine dermis); conditions: mouse, in vivo
Procedure: (§1) Footpad Assay. 0.05 ml of PBS containing a test substance was injected intradermally into the right hind footpad of each mouse. An identical amount of diluent, not containing the test substance, was injected into the left hind footpad. At various time points, footpad thicknesses were measured with a spring loaded engineer's micrometer (Fowler Co., Biggswald, England).
(§2) At various time points, mice were sacrificed and footpad tissue was prepared for light microscopy. This tissue was used to quantify infiltrating cell types. Biopsy specimens were fixed in 10% buffered formalin for at least 48 hours and then prepared using standard techniques of paraffin embedding and staining with hematoxylin and eosin. Using an ocular grid, four cellular areas of dermis in each specimen were examined in a coded fashion at 1000× magnification and inflammatory cells were quantified. Differences between groups were assessed by Student's t test or analysis of variance, where appropriate.
(§3) For each mouse, 0.05 mg, slow release indomethacin pellets (Innovative Research, Toledo, Ohio) were implanted subcutaneously under light ether anesthesia 48 hours prior to an experiment. These pellets continuously release their contents over 14 days.

[2] = tested on: Implanted tumors; assay: Anti-tumor activity of rPF4 combined with indomethacin; format: in vivo, mice; conditions: s.c. tumors, indomethacin 50 μg slow release pellet; FIG. 10
Procedure: Four groups of mice were used in this experiment. In two groups of mice, slow release indomethacin pellets (50 μg) were implanted surgically under the skin of the left flank. The other two groups were not treated with indomethacin. Tumors were implanted subcutaneously in all four groups in the right flank.

[3] = tested on: hind footpad (murine dermis); assay: Footpad assay (dermal inflammation); conditions: systemic indomethacin
Procedure: as §1, §2, §3

[4] = tested on: heparin inhibition of Factor Xa; assay: Factor Xa assay of heparin binding (prevention of heparin inhibition); format: biochemical
From the text: The lysine rich region of PF4 (residues 61-66) is also the domain associated with the binding of heparin by PF4. Heparin is known to play a role in modulating angiogenesis, which can also be affected by protamine, another well characterized heparin-binding protein. To assess the ability of PF4-based synthetic peptides to bind heparin, we assayed the activity of coagulation-cascade enzymes which are inhibited by heparin. The Factor Xa assay used here has previously been described in Denton et al. (1983) Biochem. J. 209:455-460.

[5] = tested on: heparin inhibition of thrombin; assay: Thrombin assay of heparin binding (prevention of heparin inhibition); format: biochemical; conditions: C-13: even at ten times an effective level of rPF4
[6] = tested on: angiogenesis on the CAM; assay: Chicken chorioallantoic membrane (CAM) assay; format: in vivo; conditions: for biological activity in the CAM assay: Table 4, compared with rPF4-211
Procedure: Chicken Chorioallantoic Membrane (CAM) Assay. Fertile eggs were incubated in a stationary position for 3 days at 37° C. and 70-80% relative humidity. During this time, the embryo rose to the upper surface of the egg contents. At the beginning of the 4th day, the eggs were cracked without inversion and carefully deposited into sterile plastic petri dishes such that the embryo remained on the upper surface. The shell-free eggs were incubated for an additional 72 hours at 37° C., under an atmosphere containing 2.5-3.5% CO2 after which the growing embryos developed a recognizable CAM. Discs, made by mixing test samples with 1% (w/v) methylcellulose, were dried and placed on the CAM between major veins and approximately 0.5 cm from the embryo. Following another 48 hour incubation at 37° C. (2.5-3.5% CO2), the samples were scored for their ability to inhibit angiogenesis. Inhibition appears as an avascular zone surrounding the implant and can often include elbows formed by veins avoiding the disc and a reduced number of capillaries in the region of the implant.

[7] = tested on: Human umbilical vein endothelial cells (HUVEC); assay: Endothelial cell proliferation assay; format: cell-based; conditions: for inhibition of human umbilical vein endothelial cell proliferation: FIG. 6; for biological activity in the HUVEC assay: Table 4, compared with rPF4-211
Procedure: Endothelial Cell Proliferation Assay. Human umbilical vein endothelial cells (HUVEC) were cultured in Medium 199 (Gibco) containing 10% (v/v) fetal bovine serum (FBS), 150 mcg/ml endothelial cell growth supplement (ECGS) and 5 units/ml heparin at 37° C. and 4-5% CO2. Every 3-4 days, the cultures were harvested by trypsin treatment, diluted, replated, and grown to confluence. Prior to the start of an experiment, the cells were centrifuged and resuspended in heparin-free media and incubated with the test substance (PF4) for 3 days under standard culture conditions. At the end of the incubation period, the cells were removed by trypsin treatment and counted with a Particle Data Elzone 180 Cell Counter. Statistical significance between means was determined by a standard Student t-test for unpaired data. […]

[8] = tested on: B16-F10 melanoma tumor line; assay: In vivo tumor growth assay, injection into the nascent tumor; design: species or system C57BL/6J female mice
Procedure: In vivo Tumor Growth Assay. Normal C57BL/6J female mice (6-8 weeks old) were inoculated subcutaneously with 5×10^5 log phase cells of a B16-F10 melanoma tumor line. This protocol led to progressive tumor growth resulting in large (300 mm^3) necrotic tumors after approximately 10 days, followed by death of untreated animals usually within three weeks of tumor inoculation.
To test the efficacy of rPF4 in preventing in vivo tumor growth and angiogenesis, tumor bearing animals were injected daily, directly into the nascent tumor, with either rPF4 or with buffer lacking rPF4, beginning one day after tumor inoculation. Tumor volume was measured at regular intervals with digital calipers by laboratory personnel uninformed of the specific treatment received by each subject animal.
The efficacy of rPF4-211 or rPF4-241 in preventing tumor growth and angiogenesis was tested. The inhibition of in vivo tumor growth was assayed after injection of either rPF4-211 (in 20 mM NaOAc, pH 4.0) or rPF4-241 (in 50 mM sodium phosphate, pH 6.5, 50 mM NaCl) directly into the nascent tumor, as described in the materials and methods section above.

[9] = tested on: B16 murine melanoma cell line; assay: Systemic rPF4 against B16 melanoma lung metastases; format: in vivo; conditions: for # of Metastases (#/Mouse) / Lung Wt.: day 21, average of six mice
Procedure: Cells of a B16 murine melanoma cell line were injected intravenously into a tail vein of a mouse. Thirty seconds later, rPF4 (in saline or acetate buffer) was injected into the same mouse via a different tail vein. After 21 days, the tumor burden of the test and control animals was measured by counting, optically, lung metastases, and by weighing the lungs of the mice. Referring to Table 6, PF4 produced a dose-dependent effect, as measured by both parameters.

[10] = tested on: tumor cell growth; assay: Tumor cell growth in vitro; format: cell-based
[11] = tested on: Kaposi's sarcoma; assay: Cancers that contain malignant endothelial cells; conditions: such as Kaposi's sarcoma
[12] = tested on: Human umbilical vein endothelial cells (HUVEC); assay: Endothelial cell proliferation assay; format: cell-based; conditions: rPF4 50 mcg/ml, 5 u/ml heparin
[13] = heparin-deficient medium, FIG. 3
[14] = 0.375 mg rPF4 i.v. (19.7 mg/kg)

Molecule: cytochrome c [reference compound]
- inflammatory response [1]: failed to elicit a significant inflammatory response

Molecule: COc1ccc2c(c1)c(CC(=O)O)c(C)n2C(=O)c1ccc(Cl)cc1 [indomethacin]
- growth of implanted tumors [2]: grew rapidly after day 6
- effect on the inflammatory cell infiltrate induced by rPF4 [3]: partially abrogated
- effect on the rPF4 pro-inflammatory response ([3]; FIG. 8): significantly blunts

Molecule: C-41: 41 amino acid C-terminal peptide of PF4 (IKAGPHCPTAQLIATLKNGRKICLDLQAPLYKKIIKKLLES; Platelet factor 4; UniProt P02776 61-101, looked up, fragment)
- prevention of heparin inhibition of Factor Xa [4]: prevented heparin inhibition less effectively
- prevention of heparin inhibition of thrombin [5]: prevented heparin inhibition less effectively
- Pro-inflammatory response Infiltrating [1]: ++
- Pro-inflammatory response Swelling [1]: ++
- composition of the inflammatory infiltrate [1]: composed of neutrophils and to a lesser degree mononuclear cells
- inflammatory response [1]: pro-inflammatory

Molecule: polylysine [reference compound]
- inhibition of angiogenesis on the CAM ([6]; 6.5 nmol dosages): not to cause inhibition

Molecule: rPF4: recombinant platelet factor 4 with the wild type sequence, 70 residues; residues 58-70 P L Y K K I I K K L L E S
- inhibition of angiogenesis on the CAM ([6]; discs containing several concentrations, FIG. 2): inhibited angiogenesis
- prevention of heparin inhibition of Factor Xa [4]: approximately equimolar concentrations
- prevention of heparin inhibition of thrombin [5]: approximately equimolar concentrations
- inhibition of human umbilical vein endothelial cell proliferation [7]: effective at inhibiting the proliferation
- concentration at which inhibition of endothelial cell growth was complete [7, 13]: 3.2 µM
- lowest concentration with significant inhibition of endothelial cell growth [7, 13]: 1.3 µM
- endothelial cell growth (cell count) ([7]; rPF4 50 mcg/ml, no heparin, three day incubation): 6.0 ± 0.6
- % Inhibition ([7]; rPF4 50 mcg/ml, no heparin, based on seeding of 8 × 10^4 cells/well): 100% and ~ 100%
- time until inhibition of tumor growth was apparent ([8]; after the initial inoculation of rPF4): apparent within three days
- tumor growth on continued treatment ([8]; daily injection into the tumor): completely suppressed tumor growth
- tumor status ([8]; within seven days of tumor inoculation, daily injection into the tumor, FIG. 7): essentially tumor-free
- # of Metastases (#/Mouse) [9, 14]: 112.2 #/Mouse
- Lung Wt. [9, 14]: 525 mg
- # of Metastases (#/Mouse) ([9]; 0.75 mg rPF4 i.v. (40.1 mg/kg)): 66.0 #/Mouse
- Lung Wt. ([9]; 0.75 mg rPF4 i.v. (40.1 mg/kg)): 404 mg
- # of Metastases (#/Mouse) ([9]; 1.5 mg rPF4 i.v. (84.2 mg/kg)): 54.7 #/Mouse
- Lung Wt. ([9]; 1.5 mg rPF4 i.v. (84.2 mg/kg)): 357 mg
- toxicity or other adverse effects ([9]; systemic dosages in excess of 5000 μg per kg of body weight): no observable toxicity or other adverse effects
- direct inhibition of tumor cell growth in vitro [10]: did not directly inhibit tumor cell growth in vitro
- effect on cancers that contain malignant endothelial cells [11]: inhibitory
- growth of implanted tumors [2]: grew very little, if at all
- Pro-inflammatory response Infiltrating [1]: ++
- Pro-inflammatory response Swelling [1]: ++
- composition of the inflammatory infiltrate [1]: composed of neutrophils and to a lesser degree mononuclear cells
- onset of acute inflammation [1]: within two hours
- endothelial cell growth (cell count) ([12]; three day incubation): 14.0 ± 0.4
- % Inhibition ([12]; based on seeding of 8 × 10^4 cells/well): 45%

Molecule: protamine [reference compound]
- prevention of heparin inhibition of Factor Xa [4]: approximately equimolar concentrations
- prevention of heparin inhibition of thrombin [5]: approximately equimolar concentrations

Molecule: rPF4-231: rPF4 mutant that terminates at amino acid number 60: [PF4 AA 1-57] P L Y (EAEEDGDLQCLCVKTTSQVRPRHITSLEVIKAGPHCPTAQLIATLKNGRKICLDLQAPLY; Platelet factor 4 recombinant; UniProt P02776 32-91, looked up, fragment)
- biological activity in the CAM assay [6]: does not exhibit significant biological activity
- biological activity in the HUVEC assay [7]: does not exhibit significant biological activity

B1: rPF4-241: PF4 mutant, four lysine residues near the C-terminus changed to two Gln-Glu couplets: P L Y Q E I I Q E L L E S (protein, UniProt P02776 32-101, looked up, variant K61Q K62E K65Q K66E)
Platelet factor 4: EAEEDGDLQCLCVKTTSQVRPRHITSLEVIKAGPHCPTAQLIATLKNGRKICLDLQAPLYQEIIQELLES
modifications: Platelet factor 4 recombinant
notes: PF4 mutant, four lysine residues near the C-terminus changed to two Gln-Glu couplets: P L Y Q E I I Q E L L E S
- inhibition of angiogenesis in the CAM system ([6]; 1.25 nmol/disc, lowest concentration tested, FIG. 5): extensively inhibited angiogenesis
- reversal of the inhibitory effect by heparin ([6]; CAM): not reversed by heparin
- biological activity in the CAM assay [6]: enhanced activity
- inhibition of angiogenesis compared with native rPF4 ([6]; equal concentrations, larger avascular zones): even more effective
- heparin-binding activity ([4]; Factor Xa inhibition assay): lacked heparin-binding activity
- inhibition of human umbilical vein endothelial cell proliferation [7]: effective at inhibiting the proliferation
- biological activity in the HUVEC assay [7]: enhanced activity
- tumor growth on continued treatment ([8]; daily injection into the tumor): same effect was observed
- Pro-inflammatory response Infiltrating [1]: +
- Pro-inflammatory response Swelling [1]: +

B2: rPF4-307: rPF4 mutant, C-terminal sequence P L Y Q I E I Q L E L E S (protein, UniProt P02776 32-101, looked up, variant K61Q K62I I63E I64I K65Q K66L L67E L68L)
Platelet factor 4: EAEEDGDLQCLCVKTTSQVRPRHITSLEVIKAGPHCPTAQLIATLKNGRKICLDLQAPLYQIEIQLELES
modifications: Platelet factor 4 recombinant
- biological activity in the CAM assay [6]: enhanced activity
- biological activity in the HUVEC assay [7]: enhanced activity

B3: rPF4-302: rPF4 mutant, C-terminal sequence P L Y Q Q I I Q Q L L E S (protein, UniProt P02776 32-101, looked up, variant K61Q K62Q K65Q K66Q)
Platelet factor 4: EAEEDGDLQCLCVKTTSQVRPRHITSLEVIKAGPHCPTAQLIATLKNGRKICLDLQAPLYQQIIQQLLES
modifications: Platelet factor 4 recombinant
- biological activity in the CAM assay [6]: does not exhibit significant activity
- biological activity in the HUVEC assay [7]: does not exhibit significant activity
